The text below walks through data of paper PMC5040747, “Preparation and Evaluation of a Novel Class of Amphiphilic Amines as Antitumor Agents and Nanocarriers for Bioactive Molecules” (Pharmaceutical Research, 2016).

Usually pIC50 stands for the negative decadic logarithm of the IC50, by convention in mol/L.

Data set [1] has as its system HUVEC. Description: MTT cell proliferation assay, HUVEC. It counts as cell-based. As to conditions: Homo sapiens, normal cells, read-out: Cell killing activity IC50. As for the experimental part:
(§1) Cells were plated in 96-well tissue culture plates at a density of 1 × 10^3 cells/well, allowed to attach 24 h, and then left untreated or treated with growth medium containing different concentrations of the tested RCn compounds previously dissolved in PBS. After different time periods the cell vitality was determined by MTT assay according to the manufacture’s instruction (Promega). Results are reported as the micromolar concentration of RCn reducing cell survival to 50% (IC50).
(Formazan colour is commonly taken as a measure of viable cells.)

The nature of data set [2]: Micelle size by TEM. In kind it is physicochemical. As to conditions: RC16 micelles self-assembled in water. As for the experimental part: TEM studies were carried out on SH-SY5Y cells and HFs incubated with 5 μM RC16 for 24 h. Cells were seeded on cover glasses for 24 h and then the medium was replaced with a fresh one containing 5 μM RC16 for 24 h. At the end of the treatment the samples were washed with PBS and fixed with 2.5% glutaraldehyde in 0.1 M phosphate buffer for 2 h at 4°C and subsequently post-fixed with 1% OsO4 in 0.1 M phosphate buffer for 1 h at room temperature. After several washes the samples were dehydrated in an acetone series (70, 90, 100%) and embedded in Epon resin (Fluka, Sigma-Aldrich). Thin sections were collected on nickel grids, stained with uranyl acetate and lead citrate, and observed under a TEM (Philips CM10; FEI). Images were recorded using a Megaview III digital camera (FEI). […] To this purpose an aqueous solution of RC16 (20 μM) was stained with 2% (w/v) phosphotungstic acid for 3 min on a copper grid and subsequently it was visualized under TEM.

Data set [3] relates to Ramos. Description: MTT cell proliferation assay, Ramos. In kind it is cell-based. As to conditions: Homo sapiens, Lymphoma, read-out: Cell killing activity IC50. As for the experimental part: as §1
The test system of data set [4] is S462TY. Description: MTT cell proliferation assay, S462TY. It counts as cell-based. As to conditions: Homo sapiens, Malignant Peripheral Nerve Sheath Tumor, read-out: Cell killing activity IC50. As for the experimental part:
as §1

The subject of data set [5] is MDA-MB-231. Description: MTT cell proliferation assay, MDA-MB-231. In kind it is cell-based. As to conditions: Homo sapiens, MDA-MB-231, adult tumor cell line, read-out: Cell killing activity IC50. As for the experimental part:
as §1

Molecules are shown by their SMILES. pIC50: −log10 of the molar value. Where two headings read alike, the source gives them in different places.

For `CCCCCCCCCCCCCCC1CN2CCCN3CCCCCC132` (stereo not drawn) [RC16, 2-tetradecyl-4,8-diazatricyclo[6.5.0.0^1,^4]tridecane], the pIC50 in data set [1] (24 h) was 4.97; in data set [1] (48 h), 5.02; in data set [3] (24 h), 7.00; in data set [3] (48 h), 7.40; in data set [4] (24 h) it was 5.95; in data set [4] (48 h), 6.12. The figures for the pIC50 in data set [5] (24 h) and in data set [5] (48 h) were 5.53 and 5.78, respectively. Moreover, the Micelle mean diameter in data set [2] is 20–30 nm.
